Experimental findings from ChEMBL document CHEMBL1154470, “Synthesis and antimicrobial activities of a new series of 4-S-[4(1)-amino-5(1)-oxo-6(1)-substituted benzyl-4(1),5(1)-dihydro-1(1),2(1),4(1)-triazin-3-yl]mercaptoacetyl-3-arylsydnones” (2008) are described below.

≈ marks a conversion by molar mass, not a printed value.

Holding throughout (format): functional
The subject of one test is Staphylococcus aureus. The experiment in a line: Antibacterial activity against Staphylococcus aureus ATCC 25923 by serial dilution method.
A further test has as its system Pseudomonas aeruginosa. The experiment in a line: Antibacterial activity against Pseudomonas aeruginosa ATCC 27853 by serial dilution method.
A further test relates to Escherichia coli. Kind of test: Antibacterial activity against Escherichia coli ATCC 25922 by serial dilution method.
A further test deals with Bacillus subtilis. Kind of test: Antibacterial activity against Bacillus subtilis by serial dilution method.
The next test relates to Candida albicans. The experiment in a line: Antifungal activity against Candida albicans NCIM No. 3100 by serial dilution method.

Take `COc1ccc(-[n+]2noc([O-])c2C(=O)CSc2nnc(Cc3ccccc3)c(=O)n2N)cc1`: the MIC in the test with Staphylococcus aureus, against Pseudomonas aeruginosa, with Escherichia coli, with Bacillus subtilis and in the test with Candida albicans was 0.25 µg/mL (≈ 0.536 µM) in each case.

Take `Cc1ccc(-[n+]2noc([O-])c2C(=O)CSc2nnc(Cc3ccccc3)c(=O)n2N)cc1`: the MIC in the test with Staphylococcus aureus, in the test with Pseudomonas aeruginosa, against Escherichia coli, against Bacillus subtilis and with Candida albicans was 0.25 µg/mL (≈ 0.555 µM) in each case.

Turning to `Cc1ccc(-[n+]2noc([O-])c2C(=O)CSc2nnc(Cc3ccc(Br)cc3)c(=O)n2N)cc1`, the MIC against Staphylococcus aureus, in the test on Pseudomonas aeruginosa, against Escherichia coli, in the test on Bacillus subtilis and with Candida albicans was 0.25 µg/mL (≈ 0.472 µM) in each case.

Take `Cc1ccc(-[n+]2noc([O-])c2C(=O)CSc2nnc(Cc3ccc(Cl)cc3)c(=O)n2N)cc1`: the MIC in the test with Staphylococcus aureus, with Pseudomonas aeruginosa, in the test on Escherichia coli, in the test with Bacillus subtilis and in the test on Candida albicans was 0.25 µg/mL (≈ 0.516 µM) each time.

Take `Nn1c(SCC(=O)c2c([O-])on[n+]2-c2ccccc2)nnc(Cc2ccc(Br)cc2)c1=O`: the MIC against Staphylococcus aureus, against Pseudomonas aeruginosa, with Escherichia coli, with Bacillus subtilis and against Candida albicans was 0.25 µg/mL (≈ 0.485 µM) in each case.

For `Nn1c(SCC(=O)c2c([O-])on[n+]2-c2ccccc2)nnc(Cc2ccc3c(c2)OCO3)c1=O`, the MIC in the test with Staphylococcus aureus, with Pseudomonas aeruginosa, against Escherichia coli, against Bacillus subtilis and in the test with Candida albicans was 0.25 µg/mL (≈ 0.52 µM) each time.

With `Nn1c(SCC(=O)c2c([O-])on[n+]2-c2ccccc2)nnc(Cc2ccc(Cl)cc2)c1=O`, the MIC against Staphylococcus aureus, with Pseudomonas aeruginosa, against Escherichia coli, in the test with Bacillus subtilis and in the test on Candida albicans was 0.25 µg/mL (≈ 0.531 µM) each time.

As for `COc1ccc(-[n+]2noc([O-])c2C(=O)CSc2nnc(Cc3ccc(Br)cc3)c(=O)n2N)cc1`, the MIC with Staphylococcus aureus, with Pseudomonas aeruginosa, with Escherichia coli, with Bacillus subtilis and in the test with Candida albicans was 0.25 µg/mL (≈ 0.458 µM) in each case.

For the molecule `Cc1ccc(-[n+]2noc([O-])c2C(=O)CSc2nnc(Cc3ccc4c(c3)OCO4)c(=O)n2N)cc1`, the MIC against Staphylococcus aureus, in the test on Pseudomonas aeruginosa, in the test with Escherichia coli, against Bacillus subtilis and against Candida albicans was 0.25 µg/mL (≈ 0.506 µM) each time.

On to `COc1ccc(-[n+]2noc([O-])c2C(=O)CSc2nnc(Cc3ccc(Cl)cc3)c(=O)n2N)cc1`, for which the MIC with Staphylococcus aureus, against Pseudomonas aeruginosa, in the test on Escherichia coli, with Bacillus subtilis and in the test with Candida albicans was 0.25 µg/mL (≈ 0.499 µM) throughout.

As to `Nn1c(SCC(=O)c2c([O-])on[n+]2-c2ccccc2)nnc(Cc2ccccc2)c1=O`, the minimum inhibitory concentration (MIC) against Staphylococcus aureus, against Pseudomonas aeruginosa, with Escherichia coli, in the test with Bacillus subtilis and with Candida albicans was 0.25 µg/mL (≈ 0.573 µM) in each case.

`Nn1c(SCC(=O)c2c([O-])on[n+]2-c2ccccc2)nnc(Cc2ccc([N+](=O)[O-])cc2)c1=O`: the MIC (commonly the lowest concentration that inhibits growth of the organism) in the test on Staphylococcus aureus turned out to be 0.5 µg/mL (≈ 1.04 µM); in the test on Pseudomonas aeruginosa, 0.25 µg/mL (≈ 0.519 µM); with Escherichia coli it was 0.25 µg/mL (≈ 0.519 µM); in the test with Bacillus subtilis it was 0.25 µg/mL (≈ 0.519 µM); against Candida albicans it was 0.25 µg/mL (≈ 0.519 µM).

In the case of `OC(Cn1cncn1)(Cn1cncn1)c1ccc(F)cc1F` [FLUCONAZOLE], in the test on Candida albicans, 0.25 µg/mL (≈ 0.816 µM) was the least that counted as inhibitory (MIC).

Take `NC(=O)N/N=C/c1ccc([N+](=O)[O-])o1` [NITROFURAZONE]: the MIC came out at 0.5 µg/mL (≈ 2.52 µM) in the test on Staphylococcus aureus, 0.5 µg/mL (≈ 2.52 µM) against Pseudomonas aeruginosa, 0.25 µg/mL (≈ 1.26 µM) in the test on Escherichia coli and 0.5 µg/mL (≈ 2.52 µM) with Bacillus subtilis.
